In patent publication US10221181B2, “6-amino-7-bicyclo-7-deaza-purine derivatives as protein kinase inhibitors” (NERVIANO MEDICAL SCIENCES S.r.l., priority 2014, dated 2019) one finds IC50 data, which are given here for 13 compounds.

Holding throughout (format): cell-based
In experiment [1] the test system is A2780 ovarian carcinoma. As to the kind of experiment: In vitro cell proliferation assay, A2780 (non RET-dependent control). As to conditions: Homo sapiens. As for the experimental part:
(§1) In Vitro Cell Proliferation Assay
(§2) To evaluate the antiproliferative activity of a compound of formula (I) the following human cell lines were used: A2780 ovarian carcinoma; TT medullary thyroid carcinoma, harboring a mutated RET-C634W receptor; LC-2/ad human lung adenocarcinoma, harboring the CCDC6-RET fusion protein. Exponentially growing cells were seeded and incubated at 37° C. in a humidified 5% CO2 atmosphere using appropriate medium supplemented with 10% Fetal Bovine Serum. 24 hours following cell plating, scalar doses of the compounds dissolved in 0.1% DMSO were added to the medium and cells were exposed to drugs for either 72 hours (A2780) or 144 hours (TT and LC-2/ad), according to their different proliferation rate. At the end of treatment, cell proliferation was determined by an intracellular ATP monitoring system (CellTiterGlo—Promega), following manufacturer's instructions, and using an Envision instrument (PerkinElmer) as reader. Data obtained from compound versus vehicle treated cells were compared using Assay Explorer (Symyx Technologies Inc) software. IC50 values were calculated using sigmoidal interpolation curve fitting. In the following Table A the antiproliferative activity of representative compounds of formula (I) on one medullary thyroid carcinoma cell line expressing the aforementioned mutated forms of RET (TT) and on one lung adenocarcinoma cell line harboring the aforementioned fusion form of RET (LC-2/ad) is reported. As control, the antiproliferative activity of the same compounds on an unrelated non RET-dependent cell line (A2780) is reported. All these compounds show remarkable activity on RET-driven cellular models with respect to the unrelated ones.

The test system of experiment [2] is TT medullary thyroid carcinoma, harboring a mutated RET-C634W receptor. As to the kind of experiment: In vitro cell proliferation assay, TT. The following applies: Homo sapiens. As for the experimental part:
as §1, §2

Experiment [3] deals with LC-2/ad human lung adenocarcinoma, harboring the CCDC6-RET fusion protein. Nature of the experiment: In vitro cell proliferation assay, LC-2/ad. As for the experimental part:
as §1, §2

Where [4] appears, read: A2780, antiproliferative activity, 72 hours exposure, CellTiterGlo ATP readout, unrelated non RET-dependent cell line, read-out: A2780 IC50.
Setting [5] is: antiproliferative activity, 144 hours exposure, CellTiterGlo ATP readout, RET-C634W, read-out: TT IC50.
Setting [6] is: antiproliferative activity, 144 hours exposure, CellTiterGlo ATP readout, CCDC6-RET fusion, read-out: LC-2/ad IC50.
Setting [7] is: A2780, 72 h, read-out: A2780 IC50 (μM).
The mark [8] stands for this setting: 144 h, read-out: LC-2/ad IC50 (μM).

Where two headings read alike, the source gives them in different places.

On to `CC(C)n1cc(-c2ccc3c(C(=O)NC4CC4)cccc3c2)c2c(N)ncnc21` [cmpd 1, 6-(4-Amino-7-isopropyl-7H-pyrrolo[2,3-d]pyrimidin-5-yl)-naphthalene-1-carboxylic acid cyclopropylamide], for which the values for the IC50 in experiment [1] (setting [4]), in experiment [2] (setting [5]) and in experiment [3] (setting [6]) were 0.867 µM, 0.001 µM and 0.003 µM, respectively.

`Nc1ncnc2c1c(-c1ccc3c(C(=O)NC4CC4)cccc3c1)cn2C1CCCC1` [cmpd 3, 6-(4-Amino-7-cyclopentyl-7H-pyrrolo[2,3-d]pyrimidin-5-yl)-naphthalene-1-carboxylic acid cyclopropylamide]: the results for the IC50 in experiment [1] (setting [4]), in experiment [2] (setting [5]) and in experiment [3] (setting [6]) were 0.385 µM, 0.003 µM and 0.006 µM, respectively.

On to `CC(C)n1cc(-c2ccc3c(C(N)=O)cccc3c2)c2c(N)ncnc21` [cmpd 4, 6-(4-Amino-7-isopropyl-7H-pyrrolo[2,3-d]pyrimidin-5-yl)-naphthalene-1-carboxylic acid amide], for which the values for the IC50 in experiment [1] (setting [4]), in experiment [2] (setting [5]) and in experiment [3] (setting [6]) were 2.42 µM, 0.017 µM and 0.021 µM, respectively.

With `CC(C)NC(=O)c1cccc2cc(-c3cn(C(C)C)c4ncnc(N)c34)ccc12` [cmpd 5, 6-(4-Amino-7-isopropyl-7H-pyrrolo[2,3-d]pyrimidin-5-yl)-naphthalene-1-carboxylic acid isopropylamide], the IC50 in experiment [1] (setting [7]) is 2.94 µM; in experiment [2] (144 h, read-out: TT IC50 (μM)), 0.086 µM; in experiment [3] (setting [8]), 0.082 µM.

For `CNC(=O)c1cccc2cc(-c3cn(C(C)C)c4ncnc(N)c34)ccc12` [cmpd 6, 6-(4-Amino-7-isopropyl-7H-pyrrolo[2,3-d]pyrimidin-5-yl)-naphthalene-1-carboxylic acid methylamide], the values for the IC50 in experiment [1] (setting [4]), in experiment [2] (setting [5]) and in experiment [3] (setting [6]) were 0.348 µM, 0.024 µM and 0.049 µM, respectively.

Consider `CC(C)n1cc(-c2ccc3c(C(=O)NCC(F)(F)F)cccc3c2)c2c(N)ncnc21` [cmpd 7, 6-(4-Amino-7-isopropyl-7H-pyrrolo[2,3-d]pyrimidin-5-yl)-naphthalene-1-carboxylic acid (2,2,2-trifluoro-ethyl)-amide], for which the figures for the IC50 in experiment [1] (setting [4]), in experiment [2] (setting [5]) and in experiment [3] (setting [6]) were 2.81 µM, 0.048 µM and 0.046 µM, respectively.

With `Nc1ncnc2c1c(-c1ccc3c(C(=O)NC4CC4)cccc3c1)cn2C1CCOCC1` [cmpd 8, 6-[4-Amino-7-(tetrahydro-pyran-4-yl)-7H-pyrrolo[2,3-d]pyrimidin-5-yl]-naphthalene-1-carboxylic acid cyclopropylamide], the results for the IC50 in experiment [1] (setting [4]), in experiment [2] (setting [5]) and in experiment [3] (setting [6]) were 0.814 µM, 0.009 µM and 0.011 µM, respectively.

`CC(C)n1cc(-c2ccc3c(C(=O)Nc4ccc(CN5CCN(C)CC5)c(C(F)(F)F)c4)cccc3c2)c2c(N)ncnc21` [cmpd 10, 6-(4-Amino-7-isopropyl-7H-pyrrolo[2,3-d]pyrimidin-5-yl)-naphthalene-1-carboxylic acid [4-(4-methyl-piperazin-1-ylmethyl)-3-trifluoromethyl-phenyl]-amide]: the IC50 in experiment [1] (setting [4]) was 0.072 µM; in experiment [2] (setting [5]), 0.002 µM; in experiment [3] (setting [6]), 0.008 µM.

On to `CC(C)n1cc(-c2ccc3c(C(=O)NC4CCC4)cccc3c2)c2c(N)ncnc21` [cmpd 11, 6-(4-Amino-7-isopropyl-7H-pyrrolo[2,3-d]pyrimidin-5-yl)-naphthalene-1-carboxylic acid cyclobutylamide], for which the IC50 came to 0.961 µM in experiment [1] (setting [4]), 0.028 µM in experiment [2] (setting [5]) and 0.034 µM in experiment [3] (setting [6]).

For `Nc1ncnc2c1c(-c1ccc3c(C(=O)NC4CC4)cccc3c1)cn2C1CCC1` [cmpd 12, 6-(4-Amino-7-cyclobutyl-7H-pyrrolo[2,3-d]pyrimidin-5-yl)-naphthalene-1-carboxylic acid cyclopropylamide], the IC50 turned out to be 1.84 µM in experiment [1] (setting [4]), 0.042 µM in experiment [2] (setting [5]) and 0.051 µM in experiment [3] (setting [6]).

Regarding `Nc1ncnc2c1c(-c1ccc3c(C(=O)NC4CC4)cccc3c1)cn2CC1CC1` [cmpd 13, 6-(4-Amino-7-cyclopropylmethyl-7H-pyrrolo[2,3-d]pyrimidin-5-yl)-naphthalene-1-carboxylic acid cyclopropylamide], the IC50 in experiment [1] (setting [4]) stood at 0.463 µM; in experiment [2] (setting [5]), 0.007 µM; in experiment [3] (setting [6]), 0.006 µM.

Take `CC(C)n1cc(-c2ccc3c(c2)CCN3C(=O)NC2CC2)c2c(N)ncnc21` [cmpd 16, 5-(4-Amino-7-isopropyl-7H-pyrrolo[2,3-d]pyrimidin-5-yl)-2,3-dihydro-indole-1-carboxylic acid cyclopropylamide]: the IC50 is 2.19 µM in experiment [1] (setting [7]); 0.077 µM in experiment [2] (144 h, read-out: TT IC50 (μM)); 0.084 µM in experiment [3] (setting [8]).

With `Nc1ncnc2c1c(-c1ccc3c(C(=O)NC4CC4)cccc3c1)cn2C1CCC(F)(F)CC1` [cmpd 30, 6-[4-Amino-7-(4,4-difluoro-cyclohexyl)-7H-pyrrolo[2,3-d]pyrimidin-5-yl]-naphthalene-1-carboxylic acid cyclopropylamide], the IC50 in experiment [1] (setting [4]) is 2.34 µM; in experiment [2] (setting [5]), 0.03 µM; in experiment [3] (setting [6]), 0.04 µM.
